Patent US20080119462A1, “METHOD FOR TREATING VASCULAR HYPERPERMEABLE DISEASE” (Sucampo AG, priority 2003, published 2008)
pIC50: −log10 of the molar value.

Legend:
Human plasma SSAO = target: T1, Human plasma SSAO (Homo sapiens, UniProt Q16853); assay: Radiochemical-enzyme assay of VAP-1 enzyme (SSAO) activity with 14C-benzylamine, human plasma; format: biochemical
T1 construct: The enzyme suspension prepared from blood plasma was pre-incubated with Compound A; from tissue; host or cells: human blood plasma
T1 sequence (Q16853 27-763 limits assumed): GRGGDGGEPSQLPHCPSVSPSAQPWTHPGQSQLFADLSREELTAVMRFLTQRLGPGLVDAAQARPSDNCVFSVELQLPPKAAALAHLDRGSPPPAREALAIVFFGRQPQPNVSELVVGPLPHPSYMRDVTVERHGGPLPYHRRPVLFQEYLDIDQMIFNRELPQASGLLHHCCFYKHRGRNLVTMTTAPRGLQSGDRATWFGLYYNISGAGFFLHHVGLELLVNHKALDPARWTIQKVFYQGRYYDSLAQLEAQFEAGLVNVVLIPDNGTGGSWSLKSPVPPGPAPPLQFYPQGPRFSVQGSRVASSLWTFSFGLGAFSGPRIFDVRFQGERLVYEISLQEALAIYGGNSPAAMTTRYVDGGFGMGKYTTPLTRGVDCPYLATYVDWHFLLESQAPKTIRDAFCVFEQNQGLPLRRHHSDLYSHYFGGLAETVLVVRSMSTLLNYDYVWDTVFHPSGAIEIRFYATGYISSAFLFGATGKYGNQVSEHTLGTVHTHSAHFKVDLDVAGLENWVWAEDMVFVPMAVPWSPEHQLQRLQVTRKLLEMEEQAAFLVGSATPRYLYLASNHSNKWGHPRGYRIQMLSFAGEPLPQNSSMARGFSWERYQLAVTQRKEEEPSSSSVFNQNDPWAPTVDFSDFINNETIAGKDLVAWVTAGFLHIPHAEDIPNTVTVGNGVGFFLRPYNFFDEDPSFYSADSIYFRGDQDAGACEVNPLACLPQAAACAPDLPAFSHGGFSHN
Method: (§1) VAP-1 enzyme (SSAO) activity in both human and rat plasma was determined by a radiochemical-enzyme assay using ^14C-benzylamine as artificial substrate. The enzyme suspension prepared from blood plasma was pre-incubated with Compound A in 96-well microplate at room temperature for 30 min. The enzyme suspension was then incubated with ^14C-benzylamine (2×10^−5 mol/l final concentration) in a final volume of 50 μl at 37° C. for 1 hour. The enzyme reaction was terminated by adding 2 mol/l (50 μl) citric acid. The oxidized products were directly extracted into a 200 μl toluene scintillator, and its radioactivity was measured by a scintillation spectrometer. Monoamine oxidase (MAO) and diamine oxidase (DAO, histaminase) activities were also determined by similar method using ^14C-phenylethylamine and ^14C-putrescine as substrate, respectively. Cloned DAO from cDNA libraries was used in human DAO assay. Inhibition activity was expressed as IC50 (μmol/l) value.

Cloned human DAO = target: T2, Cloned human DAO (Homo sapiens, UniProt P19801); assay: Diamine oxidase (DAO, histaminase) activity assay with 14C-putrescine; format: biochemical
T2 construct: made in house
T2 sequence (P19801 20-751): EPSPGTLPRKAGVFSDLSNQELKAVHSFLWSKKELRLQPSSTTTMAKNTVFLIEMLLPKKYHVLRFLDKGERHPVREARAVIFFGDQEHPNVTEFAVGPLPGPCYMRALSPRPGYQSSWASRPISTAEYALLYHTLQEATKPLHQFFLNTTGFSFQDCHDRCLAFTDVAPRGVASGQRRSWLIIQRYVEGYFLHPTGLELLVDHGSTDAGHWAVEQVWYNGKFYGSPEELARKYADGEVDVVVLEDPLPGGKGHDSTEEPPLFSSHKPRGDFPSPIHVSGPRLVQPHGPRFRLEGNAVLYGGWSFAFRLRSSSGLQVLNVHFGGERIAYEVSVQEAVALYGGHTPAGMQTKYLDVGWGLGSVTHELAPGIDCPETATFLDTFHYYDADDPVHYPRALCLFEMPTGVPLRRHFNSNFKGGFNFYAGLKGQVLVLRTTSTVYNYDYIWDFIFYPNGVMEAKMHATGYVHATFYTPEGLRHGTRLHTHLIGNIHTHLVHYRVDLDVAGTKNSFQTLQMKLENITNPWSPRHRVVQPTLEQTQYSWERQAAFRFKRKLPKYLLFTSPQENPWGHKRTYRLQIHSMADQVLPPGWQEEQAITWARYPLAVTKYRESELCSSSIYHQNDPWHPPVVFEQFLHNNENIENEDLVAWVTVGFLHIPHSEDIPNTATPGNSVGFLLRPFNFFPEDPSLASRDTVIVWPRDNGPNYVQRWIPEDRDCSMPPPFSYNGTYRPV
Method: as §1

retinal VEGF = assay: Retinal VEGF level in STZ diabetic rats (Murine VEGF ELISA kit); format: in vivo, rat; details: 0.1 mg/kg, sc, u.i.d.
Method: STZ diabetic rats were prepared in the same manner as in Example 2. Compound A (0.1 mg/kg, sc, u.i.d.) was administered from 3 days to 8 weeks after the STZ administration. To the normal group and STZ control group, a vehicle was treated. At 8 weeks from the STZ administration, the retina was removed from the animals and the retinal VEGF level was determined using a Murine VEGF ELISA kit.

Inhibition of the enzyme activity of human plasma SSAO (in words) (Human plasma SSAO): completely inhibited | pIC50 (Human plasma SSAO; 30 min pre-incubation, 14C-benzylamine 2×10^−5 mol/l, 37° C., 1 hour, read-out: Inhibitory effect (IC50 values) Human plasma SSAO): 6.82 | Inhibition of the enzyme activity of cloned DAO (in words) (Cloned human DAO): not | pIC50 (Cloned human DAO; 14C-putrescine as substrate, read-out: Inhibitory effect (IC50 values) Cloned human DAO): < 4.00
SMILES: CC(=O)Nc1nc(CCc2ccc(NC(=N)N)cc2)cs1 [Compound A, N-{4-[2-(4-{[amino(imino)methyl]amino}phenyl)ethyl]-1,3-thiazol-2-yl}acetamide]
Effect on the increased retinal VEGF level in STZ diabetic rats (in words) (retinal VEGF; 3 days to 8 weeks after STZ): completely inhibited | Retinal VEGF level (retinal VEGF; STZ diabetic rats, from 3 days to 8 weeks after STZ, mean ± S.E.M., 10 rats): 28.3 ± 2.72 pg/mg protein
